Measured values taken from paper PMC12389022, “Drug Metabolism and Pharmacokinetic Evaluation of a Novel RNase H2 Inhibitor for the Treatment of Triple-Negative Breast Cancer” (Pharmaceutics, 2025).
In brackets after ≈: the same amount, converted by molar mass. Where two headings read alike, the source gives them in different places.

Assays:
[1] = Metabolite identification and relative exposure in rat plasma and urine (UHPLC-QTOF MS/MS); format: in vivo, Sprague Dawley rats; details: for Source P (detected in plasma): rat plasma after single oral dose of 50 mg/kg R14; for Source U (detected in urine): rat urine 0-24 h after single oral dose of 50 mg/kg R14; for Cumulative excretion in 24 h urine as fraction of total amount of R14 and its metabolites: rat urine 0-24 h, peak area x urine volume
Experimental: (§1) For the oral pharmacokinetics of R14, rats were fasted overnight and 4 h post-administration of 50 mg/kg oral dose of R14, with free access to water in metabolic cages. Serial blood samples (0.15 mL each) were collected from the cannulated jugular vein into heparin-coating tubes before dosing and at 5 min, 15 min, 30 min, 45 min, 1 h, 2 h, 3 h, 4 h, 6 h, 8 h, 10 h, and 24 h time points post dose. Plasma samples were separated immediately by centrifugation of the blood samples at 13,000 rpm for 3 min. For R14 quantification, 10 μL plasma aliquots were mixed with 30 μL of a stabilizing derivatization solution (0.1 M citric acid and 0.1 M sodium sulfite) and stored at −80 °C for analysis by UHPLC-MS/MS. For metabolite identification, 20 μL plasma aliquots were mixed with 80 μL acetonitrile containing 0.5% formic acid and stored at −80 °C for UHPLC-QTOF MS/MS analysis. Urine samples were collected over 0–24 h and stored at −80 °C.
Twenty microliters of urine were mixed with 80 µL of methanol containing 0.5% formic acid, vortexed for 2 min, and centrifuged for 20 min. An 80 µL Aliquot of the supernatant was transferred to a sample vial for metabolite identification using UHPLC-QTOF MS/MS.
Samples from in vivo pharmacokinetic studies, in vitro blood stability studies, and in vitro hepatic microsome studies were pretreated at the time of collection. Before analysis, the samples were thawed at room temperature, vortexed for 2 min, and centrifuged at 14,000 rpm for 20 min. An 80 µL aliquot of the supernatant was transferred to a sample vial for UHPLC-QTOF MS/MS analysis.
Metabolite identification was performed on a UHPLC-X500B QTOF MS/MS (SCIEX, Framingham, MA, USA) equipped with a Synergi Fusion-RP column (4 µm, 150 × 2 mm, 80 Å, Phenomenex, Torrance, CA, USA). The mobile phases were water with 0.1% formic acid (A) and methanol with 0.1% formic acid (B), delivered at a flow rate of 0.4 mL/min. The autosampler and oven temperatures were set at 10 °C and 30 °C, respectively. The running time was 30 min. The gradient elution was as follows: 10% B for 0.5 min; increased to 70% over 20 min; then to 95% over 2 min; held at 95% for 5 min; returned to 10% in 0.5 min; and equilibrated for 2 min.
The QTOF MS/MS was operated In positive ion mode. Data were acquired in Information-dependent-acquisition (IDA) mode, starting with a TOF MS survey scan to detect precursor ions, followed by MS/MS scans of the top 10 most intense ions (intensity > 200 counts/s). TOF MS was set to scan m/z 200–700 with a 0.1 s accumulation time, while TOF MS/MS scanned m/z 50–700 with a 0.04 s accumulation time. The source temperature and spray voltage were set at 500 °C, and 5000 v, respectively. Curtain gas and collision gas (CAD) were set at 30 and 9 psi, while nebulizer gas (gas 1) and heater gas (gas 2) were set at 55 and 60 psi, respectively. The declustering potential (DP) was 50 V. Collision energy (CE) were 10 v for TOF MS and 35 v (±15 v spread) for TOF MS/MS. Data were acquired using SCIEX OS software 1.6.1, and processed on SCIEX OS software 3.1.0.
To elucidate the metabolic pathways and identify unknown metabolites of R14, we employed a multi-step strategy. First, MS/MS fragmentation analysis was performed to characterize the fragmentation pattern of R14 and identify its key fragment ions, which served as references for metabolite identification. Next, based on the chemical structure of R14, potential biotransformation pathways mediated by hepatic cytochrome P450 enzymes were predicted. These predicted metabolites were then screened in urine samples collected during in vivo pharmacokinetic studies to identify excreted metabolites. Metabolites detected in urine were subsequently cross-verified in plasma samples from the same in vivo studies. If verification failed or additional metabolites were suspected, the analysis reverted to the initial fragmentation step to identify downstream or daughter metabolites. […]

[2] = R14 incubation in rat whole blood; format: in vitro ADME; details: R14 10 µg/mL, room temperature, 3 days
Experimental: Previously, we observed the complete disappearance of R14 from mouse whole blood samples after being stored for 10 days in a −70 °C freezer, raising concerns about its stability under typical storage conditions. To further investigate the degradation and potential metabolic transformation of R14 in whole blood, we spiked rat whole blood with R14 (10 µg/mL) and left it at room temperature for 3 days. Room temperature incubation allows for ongoing enzymatic and non-enzymatic processes, providing insight into R14’s metabolic stability and degradation pathways under physiologically relevant but uncontrolled conditions. After incubation, a 4X volume of methanol containing 0.5% formic acid was added to the samples, followed by vortexing for 3 min and centrifugation to obtain supernatant prior to metabolite identification using the UHPLC coupled with quadrupole time-of-flight tandem mass spectrometry (UHPLC-QTOF MS/MS).
Samples from in vivo pharmacokinetic studies, in vitro blood stability studies, and in vitro hepatic microsome studies were pretreated at the time of collection. Before analysis, the samples were thawed at room temperature, vortexed for 2 min, and centrifuged at 14,000 rpm for 20 min. An 80 µL aliquot of the supernatant was transferred to a sample vial for UHPLC-QTOF MS/MS analysis. […]

Caco-2 cell monolayer = assay: R14 permeability in the Caco-2 cell culture model; format: in vitro ADME; details: R14 10 µM
Experimental: (§2) The permeability of R14 was assessed using the Caco-2 cell monolayer model, following the protocol by Liu and Hu (Liu 2002). Caco-2 cells (2.5 × 10^5 cells per insert; 4.2 cm^2 area, 3 μm pore size) were seeded and cultured at 37 °C with 90% humidity and 5% CO2 for 19–22 days. Monolayer integrity was evaluated using transepithelial electrical resistance (TEER) measurements with a Millicell ERS-2 system. Only monolayers with TEER values between 500 and 750 Ω·cm^2 were used.
(§3) Hank’s Balanced Salt Solution (HBSS), supplemented with NaHCO3 (0.35 g/L), HEPES (5.96 g/L), and glucose (3.5 g/L), adjusted to the desired pH, was used as the transport medium. Cells from passages 41–49 were used.
(§4) After confirming TEER, R14 working solution (10 µM) was added to either the apical or basolateral side of the insert, designating that side as the donor compartment, while the opposite side served as the receiver compartment. Samples (200 µL) were collected from both the apical (A) and basolateral (B) sides at 0, 0.5, 1, 2, and 4 h. The removed volume was immediately replaced with either fresh R14 working solution (on the donor side) or fresh buffer (on the receiver side) to maintain consistent volume and drug concentration throughout the experiment.
(§5) For analysis, 100 µL of acetonitrile containing 0.6% formic acid and internal standard was added to each collected sample. After vortexing and centrifugation, the supernatant was analyzed using UHPLC-MS/MS for R14 quantification.
(§6) The apparent permeability coefficient (P, cm/s) was calculated using the following equation: P=dQ/dt/A·C0 where dQ/dt is the permeability rate of drug appearance in the receiver compartment (µmol/s), A is the surface area of the cell monolayer (cm^2), and C0 is the initial concentration in the donor compartment (µmol/mL).
(§7) Permeability was assessed in both directions (apical to basolateral and basolateral to apical), and the efflux ratio was calculated as: Effluxratio=Pb−a/Pa−b where Pa−b is the permeability coefficient from apical to basolateral, and Pb−a is the permeability coefficient from basolateral to apical.

[3] = R14 permeability in the Caco-2 cell culture model; format: in vitro ADME; details: human, Caco-2, R14 10 µM
Experimental: as §2, §3, §4, §5, §6, §7

MDA-MB-231 tumor = test system: MDA-MB-231 tumor; set-up: method as in PMID 42013846; details: oral R14 vs vehicle controls; cited from earlier work
[4] = Pharmacokinetics of R14 in rats after i.v. and oral dose; format: in vivo, Sprague Dawley rats; details: for AUC(0-t): read-out: AUC0→10h
Experimental: This study was carried out in accordance with the recommendation of the Guidelines for the Care and Use of Laboratory Animals (2011) and was in compliance with the ARRIVE guidelines. All animal experiments were conducted with prior approval from the Texas Southern University Institutional Animal Care and Use Committee (IACUC). Male adult SD rats (250–350 g) were purchased from Envigo RMS (Indianapolis, IN, USA) and were housed in standard rodent cages (3–4 rats per cage) with a 12 h light/dark cycle at 22–24 °C and had free access to standard laboratory rodent chow (7012 Teklad mouse/rat diet from Envego, Inc., Indianapolis, IN, USA) and water. Rats were acclimated to the animal care facility for at least 7 days before the start of each experiment. Only male rats were used in the present study to minimize pharmacokinetic variations due to sex differences.
To facilitate the timed withdrawal of multiple blood samples from each animal, the right jugular vein of each animal was cannulated one day prior to drug administration. The cannulas were flushed daily with 0.5 mL of sterile heparinized saline (100 units/mL). Under anesthesia using a cocktail of ketamine/acetopromazine/xylazine (50:3.3:3.3 mg/kg ip), silicone elastomer tubing (0.02 × 0.037 in) was inserted into the jugular vein, secured with a silk suture, and exteriorized in the dorsal intrascapular area. The surgical incision was prophylactically treated with nitrofurazone wound powder and closed with surgical staples.
as §1
For the intravenous (i.v.) pharmacokinetics of R14, another group of jugular vein cannulated rats received an i.v. administered 5 mg/kg R14 dose. Serial blood samples (0.15 mL each) were collected from the cannulated jugular vein into heparin-coating tubes before dosing and at 2 min, 5 min, 10 min, 30 min, 45 min, 1 h, 2 h, 4 h, 6 h, 8 h, 10 h, and 24 h time points post-dose. Plasma was processed similarly, with aliquots prepared for both R14 quantification and metabolite analysis, and urine collected over 24 h and stored at −80 °C.
The urine sample (10 μL each) was pre-mixed with 30 µL of derivatization agent (also acting as stabilizing agent). Pre-mixed plasma samples (with the derivation agent before storage) or the pre-mixed urine samples were added to 360 µL of acetonitrile (containing 2.5 ng/mL warfarin), vortexed for 2 min, and then centrifuged for 20 min. The supernatant (80 μL) was mixed with 160 µL of acetonitrile containing 0.5% formic acid, and finally, 100 μL aliquot of the mixture was transferred to a sample vial for UHPLC-MS/MS analysis.
R14 quantification via monitoring R14 bisulfite was conducted using a previously published method on a 6500+ Triple Quad UHPLC-MS/MS System (SCIEX, Framingham, MA, USA) coupled with a Synergi Fusion-RP column (50 × 2 mm, 4 µm, 80 Å, Phenomenex Inc., Torrance, CA, USA). […]

[5] = cited from earlier work
[6] = set-up: method as in PMID 36924633; details: mouse whole blood stored at −70 °C; cited from earlier work
[7] = male, Sprague Dawley, iv, i.v. 5 mg/kg, rat plasma, n = 3, mean ± SD
[8] = male, Sprague Dawley, rat, plasma, iv, i.v. 5 mg/kg, rats, n = 3, mean ± SD
[9] = male, Sprague Dawley, rat, plasma, oral 50 mg/kg, rats, n = 3, mean ± SD
[10] = male, Sprague Dawley, oral 50 mg/kg, rat plasma, n = 3, mean ± SD

Cc1ccccc1N1Sc2cc(F)ccc2C1O (stereo not drawn) [Metabolite M1]
Source P (detected in plasma) ([1]; 50 mg/kg): low concentrations and relatively low levels and √
Source U (detected in urine) [1]: undetectable
Source B (detected in whole blood incubation) [2]: sole major metabolic product and √

Cc1ccccc1N1Sc2cc(F)ccc2C1OC1OC(C(=O)O)C(O)C(O)C1O (stereo not drawn) [Metabolite M4]
Source P (detected in plasma) [1]: √
Apparent AUC in plasma relative to total AUC of R14 and all identified metabolites ([1]; rat plasma, peak area as relative concentration): 22.3%
Cumulative excretion in 24 h urine as fraction of total amount of R14 and its metabolites [1]: 48.4%
Source U (detected in urine) [1]: √

Cc1ccccc1-n1sc2cc(F)ccc2c1=O [Metabolite R14, 6-Fluoro-2-(2-methylphenyl)-1,2-benzothiazol-3(2H)-one]
Cumulative excretion in 24 h urine as fraction of total amount of R14 and its metabolites [1]: Less than 1%
Permeability assessment (Caco-2 cell monolayer): moderate permeability
Papp A→B at 4 h, 10 µM ([3]; n = 3, read-out: Pa−b (apical-to-basolateral permeability)): 6.39 ± 0.6 ×10⁻⁶ cm/s
Papp B→A at 4 h, 10 µM ([3]; n = 3, read-out: Pb−a (basolateral-to-apical permeability)): 6.41 ± 1.15 ×10⁻⁶ cm/s
efflux ratio at 4 h, 10 µM ([3]; read-out: Efflux ratio (Pb−a/Pa−b)): 1.12
Survival (MDA-MB-231 tumor): improved survival
Tumor size (MDA-MB-231 tumor): significantly reduced
AUC(0-inf) [4, 7]: 1810 ± 444 ng·h/mL
AUC(0-t) [4, 7]: 1580 ± 477 ng·h/mL
MRT [4, 8]: 1.63 ± 0.39 h
half-life [4, 8]: 5.39 ± 0.94 h
clearance ([4]; male, Sprague Dawley, rat, plasma, iv, i.v. 5 mg/kg, rats, n = 3, mean ± SD, read-out: CL (systemic clearance) (converted)): 43.8 mL/min/kg
Vd ([4]; male, Sprague Dawley, rat, plasma, iv, i.v. 5 mg/kg, rats, n = 3, mean ± SD, read-out: Vd (volume of distribution)): 20.7 ± 6.11 L/kg
bioavailability ([4]; male, Sprague Dawley, rat, plasma, oral, 50 mg/kg, oral 50 mg/kg vs i.v. 5 mg/kg, rats, read-out: F% (absolute oral bioavailability)): 13.4%
MRT [4, 9]: 2.82 ± 0.5 h
half-life [4, 9]: 2.99 ± 1.41 h
CL/F ([4]; male, Sprague Dawley, rat, plasma, oral 50 mg/kg, rats, n = 3, mean ± SD, read-out: CL/F (apparent clearance) (converted)): 367 mL/min/kg
Vd/F ([4]; male, Sprague Dawley, rat, plasma, oral 50 mg/kg, rats, n = 3, mean ± SD, read-out: Vd/F (apparent volume of distribution)): 93.3 ± 38.1 L/kg
Tmax ([4]; male, Sprague Dawley, oral 50 mg/kg, rat plasma, n = 3): 0.5 h
AUC(0-inf) [4, 10]: 2430 ± 344 ng·h/mL
Cmax [4, 10]: 1150 ± 201 ng/mL
AUC(0-t) [4, 10]: 2080 ± 255 ng·h/mL
F% (absolute oral bioavailability) ([4]; oral 50 mg/kg vs i.v. 5 mg/kg, rats): 13.38%
Solubility in DMSO ([5]; DMSO): 25 mg/mL (≈ 96.4 mM)
Water solubility ([5]; water): poorly water soluble
Time to complete disappearance from whole blood samples [6]: ≤ 10 days
